Usually pEC50 stands for the EC50 on a negative log10 scale, so that one unit is a factor of ten.

For the assay, the target named is T1, β3-AR (Homo sapiens, UniProt P13945).
T1 construct: Full-length β3-AR clones (402 amino acids) containing the last 6 amino acids of hβ3-AR are prepared; expressed in transfected cells; host or cells: CHO cells
The assay can be described thus: cAMP accumulation (SPA) in CHO cells transfected with β3-AR. Format: cell-based. The settings on record: for pEC50: CHO cells transfected with human β3-AR, cAMP, 30 min incubation, 10^-9 to 10^-5 M; for IA(β3): maximal response relative to maximal response of isoproterenol at 10^-5 M. The protocol:
The ability of the compounds of this invention to treat or inhibit disorders related to insulin resistance or hyperglycemia was confirmed with representative compounds of this invention in the following standard pharmacological test procedures, which measured the binding selectivity of the β1-, β2-, and β3-AR. Binding to the receptors was measured in Chinese Hamster ovary (CHO) cells that were transfected with β1-, β2-, and β3-AR's. The following briefly summarizes the procedures used and results obtained.
cDNA was constructed by ligating four polymerase chain reaction (PCR) products using the following primers: an ATG-Narl fragment, sense primer 5′-[…]3′ and anti-sense primer 5′ […]3′; a Narl-Accl fragment, 5′[…]3′ as sense and 5′[…]3′ as anti-sense primer; an Accli-Styl fragment, sense primer 5° […]3′ and anti-sense primer 5′[…]3′ and a Styl-TAG fragment, with sense primer 5° […]3′ and anti-sense primer 5° […]3′. The corresponding primer sequences are described in Mantzoros, C. S., et.al., Diabetes, 1996, 45, 909-914. The four fragments are ligated into a pUC 18 plasmid (Gibco-BRL) and sequenced. Full-length β3-AR clones (402 amino acids) containing the last 6 amino acids of hβ3-AR are prepared with the β3-βARpcDNA3 from ATTC.
Clones expressing receptor levels of 70 to 110 fmoles/mg protein were used in the test procedures. CHO cells were grown in 24-well tissue culture plates in Dulbecco's Modified Eagle Media with 10% fetal bovine serum, MEM non-essential amino acids, Penicillin-Streptomycin and Geneticin. On the day of test procedure, growth medium was replaced with preincubation media (Dulbecco's Modified Eagle Media) and incubated for 30 minutes at 37° C. Pre-incubation medium was replaced with 0.2 ml treatment medium containing DMEM media containing 250 μM IBMX (isobutyl-1-methylxantine) plus 1 mM ascorbic acid with test compound dissolved in DMSO. Test compounds were assayed over a concentration range of 10^−9 M to 10^−5M for β3-AR transfected cells and 10^−8 to 10^−4 M for […] transfected cells. Isoproterenol (10^−5 M) was used as an internal standard for comparison of activity. Cells were incubated at 37° C. on a rocker for 30 min with the β3-AR transfected cells and 15 min with β1-AR and β2-AR transfected cells. Incubation was stopped by the addition of 0.2N HCl and the acid was neutralized with 2.5N NaOH. The plates, containing the cells and neutralized media, were stored at −20° C. until ready to test for cAMP using the SPA test kit (Amersham).
Data collected from the SPA test procedure were analyzed as percent of the maximal isoproterenol response at 10^−5 M. Activity curves were plotted using the SAS statistical and graphics software.
In general terms: cAMP levels reflect the balance of adenylyl cyclase and phosphodiesterase activity.

pEC50: −log10 of the molar value.

T1 sequence (P13945 whole entry): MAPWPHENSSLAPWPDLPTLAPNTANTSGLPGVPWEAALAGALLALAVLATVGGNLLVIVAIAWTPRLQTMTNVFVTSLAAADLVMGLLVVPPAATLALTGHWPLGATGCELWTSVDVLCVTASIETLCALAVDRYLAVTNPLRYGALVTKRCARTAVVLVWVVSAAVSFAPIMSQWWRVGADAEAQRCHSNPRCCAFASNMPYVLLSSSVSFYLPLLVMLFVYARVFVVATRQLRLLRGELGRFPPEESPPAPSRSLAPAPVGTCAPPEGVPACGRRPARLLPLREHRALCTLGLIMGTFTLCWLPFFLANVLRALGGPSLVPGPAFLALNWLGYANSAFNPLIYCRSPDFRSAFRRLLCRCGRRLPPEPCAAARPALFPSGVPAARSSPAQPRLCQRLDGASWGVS

With `COC(=O)CC1Cc2ccc(-c3ccc(CNC[C@H](O)c4ccc(O)c(NS(C)(=O)=O)c4)cc3)cc2NC1=O` (stereo partly drawn) [Example 1, [7-(4-{[(2R)-2-Hydroxy-2-(4-hvdroxy-3-methanesulfonylamino-phenyl)-ethylamino]-methyl}-phenyl)-2-oxo-1,2,3,4-tetrahydro-quinolin-3-yl]-acetic Acid Methyl Ester], the negative-log EC50 (pEC50) was 7.40 and the “IA(β3)” value worked out at 1.1.
Taken in the same sequence, the figures for `CCOC(=O)CC1Cc2cc(-c3cccc(CNC[C@H](O)c4ccc(O)c(NS(C)(=O)=O)c4)c3)ccc2NC1=O` (some centres unmarked) [Example 2] were 7.05 and 1.0.
For `COC(=O)CC1Cc2ccc(-c3cccc(CNC[C@H](O)c4ccc(O)c(NS(C)(=O)=O)c4)c3)cc2NC1=O` (stereo partly drawn) [Example 3, [7-(3-{[(2R)-2-Hydroxy-2-(4-hydroxy-3-methanesulfonylamino-phenyl)-ethylamino]-methyl}-phenyl)-2-oxo-1,2,3,4-tetrahydro-quinolin-3-yl]-acetic acid methyl ester], in that order: 7.22 and 1.0.
For “Ethyl [6-(4-{[(2R)-2-hydroxy-2-{4-hydroxy-3-[(methylsulfonyl)amino]-phenyl}ethyl)amino]methyl}phenyl)-2-oxo-1,2,3,4-tetrahydroquinolin-3-yl]acetate [Example 4]”, in that order: 7.15 and 1.0.
